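Test compounds were applied to cells in 96-well plates for 48 hours at 5 doses. Here, GI50 denotes the concentration required for 50% inhibition of growth.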 Calls of active or inactive are those of the source. Rule as the data show it: active = GI50 up to about 1.1 µM and inactive = higher. A value given as a limit tells only on which side of the number the result lay.

Some test systems named below: CAKI-1; A498; SW-620; MDA-MB-435; NCI-H23; Hs-578T; SK-OV-3; OVCAR-8; UACC-62; OVCAR-5; COLO 205; SK-MEL-2; SF-539; SK-MEL-28; NCI-H522; NCI/ADR-RES; HCT-15; SNB-75; PC-3; NCI-H226.
Common to all, as to assay: NCI-60 cell line screen, 48 h

In the case of `Oc1c(Cl)cc(CN(Cc2cc(Cl)c(O)c(Cl)c2)C2CCCCC2)cc1Cl`, the GI50 in the assay with CAKI-1, in the assay on A498, in the assay with SW-620, in the assay with MDA-MB-435, in the assay on NCI-H23 and in the assay with Hs-578T was > 100 µM (inactive) each time. For the same molecule, the GI50 in the assay with SK-OV-3, in the assay on OVCAR-8, in the assay with UACC-62, with OVCAR-5, in the assay with COLO 205 and with SK-MEL-2 was > 100 µM (inactive) in each case. In addition, the GI50 with SF-539 is > 100 µM (inactive); in the assay with SK-MEL-28 it was > 100 µM (inactive); with NCI-H522, > 100 µM (inactive); in the assay on NCI/ADR-RES, > 100 µM (inactive); in the assay on HCT-15 it was greater than 100 µM; in the assay with SNB-75, > 100 µM (inactive). Further, the GI50 in the assay on PC-3 is > 100 µM (inactive).
In the case of `Oc1nc(S)nc2c1C(c1ccc(Cl)cc1)c1c(O)nc(S)nc1O2`, the GI50 is 25.8 µM (inactive) in the assay with CAKI-1; > 100 µM (inactive) in the assay on A498; > 100 µM (inactive) with SW-620; > 100 µM (inactive) in the assay on MDA-MB-435; > 100 µM (inactive) in the assay on NCI-H23; > 100 µM (inactive) in the assay with Hs-578T. Moreover, the GI50 in the assay on OVCAR-8, in the assay on UACC-62, with NCI-H226, with OVCAR-5, in the assay on COLO 205 and in the assay with SK-MEL-2 was > 100 µM (inactive) in each case. For the same molecule, the GI50 in the assay with SK-MEL-28 was > 100 µM (inactive); with NCI-H522, > 100 µM (inactive); in the assay with NCI/ADR-RES it was > 100 µM (inactive); in the assay with HCT-15 it was greater than 100 µM; in the assay on PC-3, > 100 µM (inactive).
As to `O=c1c2c3c(sc2nc2n1N=CN(c1ccc(F)cc1)C2)CCCC3`, the GI50 in the assay with CAKI-1, with A498, in the assay on SW-620, in the assay on MDA-MB-435, in the assay with NCI-H23 and in the assay on Hs-578T was > 100 µM (inactive) in each case. The GI50 in the assay on SK-OV-3, in the assay on OVCAR-8, in the assay on UACC-62, with NCI-H226, in the assay on OVCAR-5 and in the assay on COLO 205 was > 100 µM (inactive) each time. In addition, the GI50 in the assay with SK-MEL-2 is > 100 µM (inactive); in the assay on SK-MEL-28, > 100 µM (inactive); in the assay on NCI-H522 it was > 100 µM (inactive); in the assay on NCI/ADR-RES it was > 100 µM (inactive); in the assay with HCT-15 it was greater than 100 µM; in the assay with SNB-75 it was > 100 µM (inactive). Moreover, the GI50 in the assay with PC-3 is > 100 µM (inactive).
As for `Cn1c2ccccc2n2c3ncccc3c(=S)c(C#N)c12`, the GI50 in the assay on CAKI-1, in the assay with A498, in the assay on SW-620, with MDA-MB-435, with NCI-H23 and in the assay on Hs-578T was > 100 µM (inactive) each time. For the same molecule, the GI50 in the assay on SK-OV-3, with OVCAR-8, with UACC-62, in the assay with NCI-H226, in the assay on OVCAR-5 and in the assay on COLO 205 was > 100 µM (inactive) in each case. Further, the GI50 with SK-MEL-2 was > 100 µM (inactive); in the assay on SK-MEL-28, > 100 µM (inactive); in the assay with NCI-H522 it was > 100 µM (inactive); in the assay with NCI/ADR-RES, > 100 µM (inactive); in the assay on HCT-15, greater than 100 µM; in the assay with SNB-75, 40.3 µM (inactive). The GI50 in the assay with PC-3 is > 100 µM (inactive).
With `COc1ccc(-n2c3c(c4c(CN(C)C)c(O)ccc42)C(=O)c2ccccc2C3=O)cc1`, the GI50 in the assay on CAKI-1 is 14.2 µM (inactive); with A498, 1.21 µM (inactive); with SW-620 it was 2.07 µM (inactive); with MDA-MB-435 it was 6.93 µM (inactive); in the assay on NCI-H23, 12.7 µM (inactive); with Hs-578T, 30.5 µM (inactive). Further, the GI50 with SK-OV-3 is 2.48 µM (inactive); in the assay with OVCAR-8, 3.26 µM (inactive); in the assay on UACC-62 it was 4.41 µM (inactive); in the assay on OVCAR-5, 4.92 µM (inactive); in the assay with COLO 205 it was 8.09 µM (inactive); in the assay with SK-MEL-2 it was 10 µM (inactive). Also, the GI50 is 2.04 µM (inactive) in the assay with SF-539; 3.38 µM (inactive) with SK-MEL-28; 12.3 µM (inactive) with NCI-H522; 5.73 µM (inactive) in the assay on NCI/ADR-RES; 3.1 µM in the assay on HCT-15; 13 µM (inactive) in the assay on PC-3.
Regarding `CC(=O)OC1CCC2(C)C(=CC(C3C=C4CC(OC(C)=O)CCC4(C)C4=C3C3CC5OC6(CCC(C)CO6)C(C)C5C3(C)CC4)C3=C2CCC2(C)C3CC3OC4(CCC(C)CO4)C(C)C32)C1` (stereo not given), the GI50 with CAKI-1 was 18.2 µM (inactive); with A498, 17.1 µM (inactive); with MDA-MB-435 it was 14.1 µM (inactive); with NCI-H23 it was 14.7 µM (inactive); in the assay on Hs-578T, 2.61 µM (inactive); in the assay on SK-OV-3 it was 16.3 µM (inactive). Further, the GI50 in the assay on OVCAR-8 was 11.1 µM (inactive); in the assay with UACC-62, 13.4 µM (inactive); with NCI-H226, 23 µM (inactive); in the assay with OVCAR-5 it was 17.7 µM (inactive); with COLO 205, 17.6 µM (inactive); in the assay on SK-MEL-2 it was 16.5 µM (inactive). The GI50 was 17.7 µM (inactive) in the assay with SK-MEL-28; 6.17 µM (inactive) with NCI-H522; 17.2 µM (inactive) with NCI/ADR-RES; 14.3 µM in the assay on HCT-15; 16.3 µM (inactive) in the assay on SNB-75; 12.9 µM (inactive) with PC-3.
Take `CN(CCc1ccc(N)cc1)[C@H]1CCCC[C@H]1N1CCCC1`: the GI50 in the assay with CAKI-1, with A498, in the assay on SW-620, in the assay with MDA-MB-435, in the assay with NCI-H23 and with Hs-578T was > 100 µM (inactive) each time. Moreover, the GI50 with SK-OV-3, with OVCAR-8, with UACC-62, with NCI-H226, with OVCAR-5 and in the assay on COLO 205 was > 100 µM (inactive) each time. The GI50 in the assay on SK-MEL-2 was > 100 µM (inactive); in the assay on SK-MEL-28 it was > 100 µM (inactive); in the assay on NCI-H522, > 100 µM (inactive); with NCI/ADR-RES, > 100 µM (inactive); in the assay with HCT-15, greater than 100 µM; with SNB-75 it was > 100 µM (inactive). In addition, the GI50 in the assay with PC-3 is > 100 µM (inactive).
On to `CSc1nc(Nc2cccc(C(F)(F)F)c2)c2c(N)nn(C)c2n1`, for which the GI50 was > 100 µM (inactive) in the assay on CAKI-1; 48 µM (inactive) in the assay on A498; > 100 µM (inactive) with SW-620; > 100 µM (inactive) in the assay with MDA-MB-435; > 100 µM (inactive) in the assay with NCI-H23; > 100 µM (inactive) in the assay on Hs-578T. Moreover, the GI50 in the assay on SK-OV-3, in the assay on OVCAR-8, in the assay on UACC-62, with NCI-H226, in the assay on OVCAR-5 and in the assay with COLO 205 was > 100 µM (inactive) each time. The GI50 was > 100 µM (inactive) with SK-MEL-2; > 100 µM (inactive) with SK-MEL-28; 34 µM (inactive) with NCI-H522; 85.3 µM (inactive) in the assay on NCI/ADR-RES; greater than 100 µM in the assay with HCT-15; 81.3 µM (inactive) with SNB-75. In the assay with PC-3, the GI50 is > 100 µM (inactive).
Take `Nc1cccc2cc(S(=O)(=O)Nc3ccc(C(=O)O)cc3)ccc12`: the GI50 in the assay with CAKI-1, in the assay with A498, in the assay with SW-620, in the assay on MDA-MB-435, in the assay with NCI-H23 and with Hs-578T was > 100 µM (inactive) in each case. For the same molecule, the GI50 with SK-OV-3, in the assay with OVCAR-8, in the assay on UACC-62, in the assay on NCI-H226, in the assay on OVCAR-5 and in the assay with COLO 205 was > 100 µM (inactive) each time. The GI50 in the assay on SK-MEL-2 is > 100 µM (inactive); in the assay with SK-MEL-28, > 100 µM (inactive); in the assay with NCI-H522, > 100 µM (inactive); with NCI/ADR-RES, > 100 µM (inactive); in the assay on HCT-15, greater than 100 µM; in the assay with SNB-75 it was 98.2 µM (inactive). Also, the GI50 in the assay with PC-3 was > 100 µM (inactive).
Consider `O=C(Nc1ccccn1)c1cc2c(cc1Cl)Sc1nccn1S2(=O)=O`, for which the GI50 with CAKI-1 was 36.5 µM (inactive); in the assay on A498, 45 µM (inactive); with SW-620, 45 µM (inactive); in the assay with MDA-MB-435, 27.9 µM (inactive); in the assay on NCI-H23, 27.4 µM (inactive); in the assay on Hs-578T, > 100 µM (inactive). In addition, the GI50 in the assay on SK-OV-3 is 38.1 µM (inactive); in the assay with OVCAR-8, 37.8 µM (inactive); in the assay on UACC-62, 42 µM (inactive); in the assay with NCI-H226, 24.2 µM (inactive); with OVCAR-5 it was > 100 µM (inactive); in the assay on COLO 205, 33.5 µM (inactive). Further, the GI50 in the assay with SK-MEL-2 was 20 µM (inactive); in the assay with SK-MEL-28, 44.3 µM (inactive); in the assay on NCI-H522 it was 39.1 µM (inactive); in the assay on NCI/ADR-RES it was 31 µM (inactive); in the assay with HCT-15, 30.7 µM; in the assay on SNB-75, 33.2 µM (inactive). Also, the GI50 in the assay with PC-3 is 44.8 µM (inactive).
`c1ccc2c(c1)c1c(c3ccccc32)CN2CCCC2C1` (stereo not given): the GI50 is 4.07 µM (inactive) with CAKI-1; 3.72 µM (inactive) in the assay on A498; 2.45 µM (inactive) in the assay with SW-620; 4.42 µM (inactive) with MDA-MB-435; 2.94 µM (inactive) in the assay on NCI-H23; 2.38 µM (inactive) in the assay on Hs-578T. The GI50 in the assay on SK-OV-3 is 7.52 µM (inactive); in the assay on OVCAR-8, 3.17 µM (inactive); in the assay with UACC-62, 2.33 µM (inactive); in the assay on OVCAR-5, 3.94 µM (inactive); with COLO 205 it was 3.63 µM (inactive); in the assay with SK-MEL-2, 2.3 µM (inactive). For the same molecule, the GI50 is 2.9 µM (inactive) in the assay on SF-539; 2.62 µM (inactive) in the assay with SK-MEL-28; 2.57 µM (inactive) in the assay on NCI-H522; 3.94 µM (inactive) in the assay on NCI/ADR-RES; 4.09 µM with HCT-15; 3.01 µM (inactive) in the assay with SNB-75. Further, the GI50 with PC-3 was 3 µM (inactive).

The values are drawn from ChEMBL document CHEMBL1201862, “PubChem BioAssay data set” (2004).
